Assay results from the supplement of paper PMC10307832.

Columns and labels:
Assay in all cases: relative viability (nuclei count vs DMSO), 5 days (fraction); higher = more cells survive
Idelalisib + Tozasertib = compound: CC[C@H](Nc1ncnc2[nH]cnc12)c1nc2cccc(F)c2c(=O)n1-c1ccccc1 [Idelalisib] + Cc1cc(Nc2cc(N3CCN(C)CC3)nc(Sc3ccc(NC(=O)C4CC4)cc3)n2)n[nH]1 [Tozasertib] (partner 0.1 µM)
Procedure, shortened: (§1)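 Lung cancer cell lines were pin-tool dosed in 1536-well plates on the day after seeding, with either a lone drug or a fixed anchor-drug dose plus five library-drug doses (not always all listed) in √10 steps. Nuclei were counted on 4× images after 5 days. Relative viability is the ratio of treated-well to vehicle-well nuclei counts, with each value a median of duplicate plates.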

Pemetrexed + Foretinib = compound: Nc1nc2[nH]cc(CCc3ccc(C(=O)N[C@@H](CCC(=O)O)C(=O)O)cc3)c2c(=O)[nH]1 [Pemetrexed] + COc1cc2c(Oc3ccc(NC(=O)C4(C(=O)Nc5ccc(F)cc5)CC4)cc3F)ccnc2cc1OCCCN1CCOCC1 [Foretinib] (partner 0.25 µM)
Procedure, shortened: as §1

Idelalisib + Dasatinib = compound: CC[C@H](Nc1ncnc2[nH]cnc12)c1nc2cccc(F)c2c(=O)n1-c1ccccc1 [Idelalisib] + Cc1nc(Nc2ncc(C(=O)Nc3c(C)cccc3Cl)s2)cc(N2CCN(CCO)CC2)n1 [Dasatinib] (partner 0.075 µM)
Procedure, shortened: as §1

Pemetrexed + Lapatinib = compound: Nc1nc2[nH]cc(CCc3ccc(C(=O)N[C@@H](CCC(=O)O)C(=O)O)cc3)c2c(=O)[nH]1 [Pemetrexed] + CS(=O)(=O)CCNCc1ccc(-c2ccc3ncnc(Nc4ccc(OCc5cccc(F)c5)c(Cl)c4)c3c2)o1 [Lapatinib] (partner 2 µM)
Procedure, shortened: as §1

| Cell Line | relative viability (Idelalisib + Tozasertib; first compound 0.04 µM) | relative viability (Idelalisib + Tozasertib; first compound 0.1265 µM) | relative viability (Idelalisib + Tozasertib; first compound 0.4 µM) | relative viability (Idelalisib + Tozasertib; first compound 1.265 µM) | relative viability (Idelalisib + Tozasertib; first compound 4 µM) | relative viability (Pemetrexed + Foretinib; first compound 0.002 µM) | relative viability (Pemetrexed + Foretinib; first compound 0.006325 µM) | relative viability (Pemetrexed + Foretinib; first compound 0.02 µM) | relative viability (Pemetrexed + Foretinib; first compound 0.06325 µM) | relative viability (Pemetrexed + Foretinib; first compound 0.2 µM) | relative viability (Idelalisib + Dasatinib; first compound 0.04 µM) | relative viability (Idelalisib + Dasatinib; first compound 0.1265 µM) | relative viability (Idelalisib + Dasatinib; first compound 0.4 µM) | relative viability (Idelalisib + Dasatinib; first compound 1.265 µM) | relative viability (Idelalisib + Dasatinib; first compound 4 µM) | relative viability (Pemetrexed + Lapatinib; first compound 0.002 µM) | relative viability (Pemetrexed + Lapatinib; first compound 0.006325 µM) | relative viability (Pemetrexed + Lapatinib; first compound 0.02 µM) | relative viability (Pemetrexed + Lapatinib; first compound 0.06325 µM) | relative viability (Pemetrexed + Lapatinib; first compound 0.2 µM) |
| --- | --- | --- | --- | --- | --- | --- | --- | --- | --- | --- | --- | --- | --- | --- | --- | --- | --- | --- | --- | --- |
| NCI-H2087 | 0.249 | 0.272 | 0.212 | 0.216 | 0.235 | 1.09 | 1.01 | 1.17 | 0.986 | 0.783 | 0.966 | 0.906 | 0.696 | 1.03 | 0.514 | 0.965 | 0.952 | 1.21 | 0.927 | 0.644 |
| CAL-12T | 0.323 | 0.254 | 0.295 | 0.325 | 0.265 | 1.04 | 1.07 | 1.24 | 1.17 | 1.04 | 0.315 | 0.478 | 0.273 | 0.375 | 0.305 | 0.549 | 0.678 | 0.615 | 0.774 | 0.59 |
| NCI-H596 | 0.818 | 1.01 | 0.73 | 0.855 | 0.815 | 0.765 | 0.83 | 0.938 | 0.786 | 0.581 | 0.586 | 0.631 | 0.493 | 0.575 | 0.549 | 1.03 | 1.09 | 1.07 | 0.82 | 0.644 |
| PC-14 | 0.638 | 0.603 | 0.557 | 0.6 | 0.553 | 0.894 | 0.927 | 1 | 0.611 | 0.258 | 0.273 | 0.266 | 0.248 | 0.0361 | 0.223 | 0.194 | 0.271 | 0.38 | 0.291 | 0.223 |
| NCI-H1915 | 0.55 | 0.406 | 0.374 | 0.407 | 0.402 | 1.04 | 1.05 | 1.11 | 1.07 | 1.11 | 0.425 | 0.316 | 0.284 | 0.357 | 0.3 | 0.945 | 0.988 | 1.1 | 0.987 | 0.971 |
| NCI-H647 | 0.313 | 0.394 | – | 0.0094 | 0.109 | 0.946 | 1.07 | 1.33 | 0.989 | 0.386 | 0.194 | 0.203 | – | 0.173 | 0.127 | – | 1.08 | 1.16 | 0.889 | 0.264 |
| NCI-H322M | 0.516 | 0.532 | 0.466 | 0.44 | 0.453 | 0.961 | 0.864 | 0.973 | 0.917 | 0.834 | 0.284 | 0.246 | 0.248 | 0.251 | 0.263 | 0.642 | 0.531 | 0.657 | 0.551 | 0.618 |
| NCI-H2170 | 0.796 | 0.706 | 0.69 | 0.727 | 0.633 | 0.918 | 1.02 | 0.999 | 1 | 1.02 | 0.661 | 0.473 | 0.536 | 0.383 | 0.554 | 0.302 | 0.282 | 0.268 | 0.293 | 0.297 |
